Here are results for three compounds from patent US5126337A, “Thiazetoquinoline-3-carboxylic acid derivative and a pharmaceutical composition comprising the same” (priority 1989, dated 1992).

Data set [1] relates to Enterococcus faecalis HPC 984. The data set is described as follows: Antibacterial spectrum, MIC by twofold agar dilution method. Conditions: HPC984, 10^6 cfu/ml, clinically isolated strain, Gram +, 18 hrs at 37° C. Format: cell-based. As to the method:
(§1) Overnight cultures in Mueller-Hinton broth were suspended by buffered saline gelatin. One loopful of the bacterial suspension (10^6 or 10^8 colony-forming units/ml) was incubated onto the plates containing test compounds. The plates were incubated for 18 hrs at 37° C. The MIC was defined by the lowest concentration of the drug that inhibited visible growth of bacteria.
A general note: In agar dilution, organisms are placed on agar that contains the substance at set levels.

Data set [2] concerns Pseudomonas aeruginosa HNR 1472. The description is as above. The following applies: HNR1472, 10^6 cfu/ml, clinically isolated strain, Gram -, 18 hrs at 37° C. Format: cell-based. How it is done: as §1
Data set [3] concerns Enterococcus faecalis HPC 975. The data set is described as above. The following applies: HPC975, 10^6 cfu/ml, clinically isolated strain, Gram +, 18 hrs at 37° C. Format: cell-based. How it is done:
as §1

Data set [4] deals with Acinetobacter calcoaceticus HNR 939. The description is as above. The following applies: HNR939, 10^6 cfu/ml, clinically isolated strain, Gram -, 18 hrs at 37° C. Format: cell-based. As to the method: as §1
The test system of the next data set is Enterobacter cloacae 963. The data set is described as above. Format: cell-based. The following applies: 10^6 cfu/ml, standard laboratory strain, Gram -, 18 hrs at 37° C. As to the method: as §1
In data set [5] the test system is Enterococcus faecalis HPC 948. The data set is described as above. Format: cell-based. Conditions: HPC948, 10^6 cfu/ml, clinically isolated strain, Gram +, 18 hrs at 37° C. As to the method:
as §1

Data set [6] has as its system Klebsiella pneumoniae HNR 858. The description is as above. The following applies: HNR858, 10^6 cfu/ml, clinically isolated strain, Gram -, 18 hrs at 37° C. Format: cell-based. As to the method:
as §1

The test system of data set [7] is Staphylococcuss aureus HPC 292. Described as above. Format: cell-based. Conditions: 10^6 cfu/ml; clinically isolated strain, Gram +; 18 hrs at 37° C; read-out: MIC. How it is done:
as §1

The test system of data set [8] is Pseudomonas aeruginosa HNR 1537. Described as above. Format: cell-based. Conditions: HNR1537, 10^6 cfu/ml, clinically isolated strain, Gram -, 18 hrs at 37° C. As to the method: as §1
Data set [9] relates to Enterobacter cloacae HNR 1941. The description is as above. Format: cell-based. Conditions: HNR1941, 10^6 cfu/ml, clinically isolated strain, Gram -, 18 hrs at 37° C. As to the method:
as §1

In data set [10] the test system is Escherichia coli NIHJ JC-2. The data set is described as above. Format: cell-based. The following applies: NIHJJC2, 10^6 cfu/ml, standard laboratory strain, Gram -, 18 hrs at 37° C. How it is done: as §1
In data set [11] the test system is Pseudomonas aeruginosa HNR 1489. The description is as above. Format: cell-based. The following applies: HNR1489, 10^6 cfu/ml, clinically isolated strain, Gram -, 18 hrs at 37° C. How it is done: as §1
Data set [12] concerns Staphylococuss aureus FDA 209PJC-1. Described as above. Format: cell-based. The following applies: 10^6 cfu/ml; standard laboratory strain, Gram +; 18 hrs at 37° C. How it is done:
as §1

Data set [13] concerns Enterobacter cloacae HNR 1946. The description is as above. Format: cell-based. Conditions: HNR1946, 10^6 cfu/ml, clinically isolated strain, Gram -, 18 hrs at 37° C. How it is done:
as §1

Data set [14] relates to Serratia marcescens IAM 1184. The data set is described as above. Format: cell-based. The following applies: IAM1184, 10^6 cfu/ml, standard laboratory strain, Gram -, 18 hrs at 37° C. As to the method:
as §1

For data set [15], the system named is Klebsiella pneumoniae HNR 828. The data set is described as above. Format: cell-based. The following applies: HNR828, 10^6 cfu/ml, clinically isolated strain, Gram -, 18 hrs at 37° C. As to the method:
as §1

Data set [16] concerns Staphylococcuss aureus HPC 527. Described as above. Conditions: 10^6 cfu/ml; clinically isolated strain, Gram +; 18 hrs at 37° C. Format: cell-based. As to the method: as §1
For data set [17], the system named is Staphylococcuss aureus HPC 308. The data set is described as above. Conditions: 10^6 cfu/ml; clinically isolated strain, Gram +; 18 hrs at 37° C. Format: cell-based. As to the method:
as §1

For data set [18], the system named is Acinetobacter calcoaceticus HNR 916. Described as above. Format: cell-based. The following applies: HNR916, 10^6 cfu/ml, clinically isolated strain, Gram -, 18 hrs at 37° C. As to the method:
as §1

Data set [19] concerns Acinetobacter calcoaceticus HNR 904. The data set is described as above. Conditions: HNR904, 10^6 cfu/ml, clinically isolated strain, Gram -, 18 hrs at 37° C. Format: cell-based. How it is done: as §1
Data set [20] deals with Serratia marcescens HNR 1792. The data set is described as above. Format: cell-based. Conditions: HNR1792, 10^6 cfu/ml, clinically isolated strain, Gram -, 18 hrs at 37° C. How it is done:
as §1

The subject of data set [21] is Serratia marcescens HNR 1767. The data set is described as above. Format: cell-based. The following applies: HNR1767, 10^6 cfu/ml, clinically isolated strain, Gram -, 18 hrs at 37° C. As to the method: as §1
Data set [22] concerns Serratia marcescens HNR 1544. Described as above. Format: cell-based. Conditions: HNR1544, 10^6 cfu/ml, clinically isolated strain, Gram -, 18 hrs at 37° C. As to the method: as §1
Data set [23] deals with Pseudomonas aeruginosa IFO 3445. Described as above. Format: cell-based. The following applies: IFO3445, 10^6 cfu/ml, standard laboratory strain, Gram -, 18 hrs at 37° C. As to the method: as §1
Data set [24] concerns Klebsiella pneumoniae HNR 869. The description is as above. Format: cell-based. Conditions: HNR869, 10^6 cfu/ml, clinically isolated strain, Gram -, 18 hrs at 37° C. As to the method: as §1
Data set [25] has as its system Enterobacter cloacae HNR 1939. Described as above. Format: cell-based. Conditions: HNR1939, 10^6 cfu/ml, clinically isolated strain, Gram -, 18 hrs at 37° C. As to the method:
as §1

Data set [26] concerns Klebsiella pneumoniae PCI-602. The description is as above. Conditions: PCI602, 10^6 cfu/ml, standard laboratory strain, Gram -, 18 hrs at 37° C, read-out: MIC. Format: cell-based. How it is done: Minimum inhibitory concentrations (MIC) of test compounds were determined by the twofold agar dilution method (Chemotherapy, 29(1), 76(1981)). Overnight cultures in Mueller-Hinton broth were suspended by buffered saline gelatin. One loopful of the bacterial suspension (10^6 or 10^8 colony-forming units/ml) was incubated onto the plates containing test compounds. The plates were incubated for 18 hrs at 37° C. The MIC was defined by the lowest concentration of the drug that inhibited visible growth of bacteria.

For the next data set, the system named is Male mice of ddY strain. Put plainly: Convulsion inducing activity in combination with fenbufen. The following applies: 30 min after fenbufen 100 mg/kg orally.

Values after ≈ are worked out from the molar mass of the structure shown.

Description for Male mice of ddY strain: Male mice of ddY strain, 5 weeks old, were used. Fenbufen suspended in 0.5% carboxymethyl cellulose was administered orally at a dose of 100 mg/kg. After thirty minutes, test compounds suspended in 0.5% carboxymethyl cellulose were injected intraperitoneally (i.p.) at a dose of 100 mg/kg or 300 mg/kg.

One may read the MIC as the lowest concentration found to suppress growth. As for `CC1Sc2c(C(=O)O)c(=O)c3cc(F)c(N4CCC(N(C)C)C4)c(F)c3n21` (stereo not drawn) [Example 36, 7-(3-Dimethylamino-1-pyrrolidinyl)-6,8-difluoro-1-methyl-4-oxo-1H,4H-[1,3]thiazeto[3,2-a]quinoline-3-carboxylic acid], the MIC in data set [1] is 0.78 µg/mL (≈ 1.97 µM); in data set [2], 50 µg/mL (≈ 126 µM); in [3] it was 6.25 µg/mL (≈ 15.8 µM); in [4] it was 0.78 µg/mL (≈ 1.97 µM); in the data set with Enterobacter cloacae 963 it was 0.2 µg/mL (≈ 0.506 µM); in data set [5], 3.13 µg/mL (≈ 7.92 µM). The MIC in data set [6] came out at 0.78 µg/mL (≈ 1.97 µM); in data set [7] it was 6.25 µg/mL (≈ 15.8 µM); in data set [8], 100 µg/mL (≈ 253 µM); in [9], 25 µg/mL (≈ 63.2 µM); in [10] it was 0.1 µg/mL (≈ 0.253 µM); in data set [11] it was 0.78 µg/mL (≈ 1.97 µM). Moreover, the MIC was found to be 0.2 µg/mL (≈ 0.506 µM) in [12]; 0.78 µg/mL (≈ 1.97 µM) in data set [13]; 0.2 µg/mL (≈ 0.506 µM) in data set [14]; 12.5 µg/mL (≈ 31.6 µM) in data set [15]; 0.2 µg/mL (≈ 0.506 µM) in [16]; 1.56 µg/mL (≈ 3.95 µM) in data set [17]. Also, the MIC in data set [18] is 0.1 µg/mL (≈ 0.253 µM); in data set [19], 12.5 µg/mL (≈ 31.6 µM); in [20] it was 12.5 µg/mL (≈ 31.6 µM); in [21] it was 25 µg/mL (≈ 63.2 µM); in data set [22] it was 0.2 µg/mL (≈ 0.506 µM); in [23], 0.78 µg/mL (≈ 1.97 µM). Besides, the MIC turned out to be 6.25 µg/mL (≈ 15.8 µM) in data set [24], 0.78 µg/mL (≈ 1.97 µM) in data set [25] and 0.025 µg/mL (≈ 0.0632 µM) in data set [26].

In the case of `CC1Sc2c(C(=O)O)c(=O)c3cc(F)c(N4CCNCC4)c(F)c3n21` (stereo not drawn) [Reference Drug C, 6,8-difluoro-1-methyl-4-oxo-7-(1-piperazinyl)-1H,4H-[1,3]thiazeto[3,2-a]quinoline-3-carboxylic acid, reference compound], the “Number of convulsion induced/Number of animals” value in the data set on Male mice of ddY strain (100 mg/kg (i.p.)) is reported as 6/6.

Take `CC1Sc2c(C(=O)O)c(=O)c3cc(F)c(N4CCC(N)C4)cc3n21` (stereo not drawn) [Reference Drug D, 7-(3-amino-1-pyrrolidinyl)-6-fluoro-1-methyl-4-oxo-1H,4H-[1,3]thiazeto[3,2-a]quinoline-3-carboxylic acid, reference compound]: the “Number of convulsion induced/Number of animals” value in the data set with Male mice of ddY strain (100 mg/kg (i.p.)) and in the data set on Male mice of ddY strain (300 mg/kg (i.p.)) was 0/6 in each case.
